# Patent publication US20200181104A1, “SSAO INHIBITORS AND USES THEREOF” (METACRINE, INC., priority 2018, published 2020)
# pIC50: −log10 of the molar value. Structures can show the parent of a compound that is named as a salt.
# Target: T1, Recombinant Human SSAO/VAP-1/AOC3 (Homo sapiens, UniProt Q16853)
# T1 construct: purchased R&D systems 3957-AO
# T1 sequence (Q16853 1-763): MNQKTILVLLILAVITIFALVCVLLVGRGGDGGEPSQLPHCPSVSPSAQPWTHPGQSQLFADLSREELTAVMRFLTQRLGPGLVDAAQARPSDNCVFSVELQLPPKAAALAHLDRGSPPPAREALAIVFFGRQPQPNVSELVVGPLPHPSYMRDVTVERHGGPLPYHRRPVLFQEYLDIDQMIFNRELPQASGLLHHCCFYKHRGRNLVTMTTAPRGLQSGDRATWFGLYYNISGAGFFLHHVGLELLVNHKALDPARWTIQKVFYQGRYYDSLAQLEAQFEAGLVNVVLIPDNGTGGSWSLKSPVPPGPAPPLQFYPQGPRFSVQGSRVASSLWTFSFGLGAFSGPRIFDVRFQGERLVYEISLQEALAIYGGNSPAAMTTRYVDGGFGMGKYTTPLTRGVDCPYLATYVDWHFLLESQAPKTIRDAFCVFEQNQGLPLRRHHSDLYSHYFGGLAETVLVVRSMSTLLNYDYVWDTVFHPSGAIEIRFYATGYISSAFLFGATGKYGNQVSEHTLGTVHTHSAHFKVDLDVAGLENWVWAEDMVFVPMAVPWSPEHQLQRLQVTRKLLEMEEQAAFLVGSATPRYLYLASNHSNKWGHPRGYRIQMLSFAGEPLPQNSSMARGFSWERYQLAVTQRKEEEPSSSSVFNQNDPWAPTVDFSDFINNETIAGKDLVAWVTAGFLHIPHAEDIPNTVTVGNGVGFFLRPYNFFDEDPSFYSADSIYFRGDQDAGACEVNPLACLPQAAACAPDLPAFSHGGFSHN
# Experiment: Human Semicarbazide-Sensitive Amine Oxidase (SSAO) Assay
# Assay type: biochemical
# Details: recombinant enzyme, 30 minutes preincubation at 37° C., benzylamine substrate, Amplex Ultra Red/HRP fluorescence
# Method in brief: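 Recombinant human SSAO/VAP-1 (2.5 μg/ml working stock in 50 mM HEPES) preincubated with compound 30 min at 37 °C over a 6-10 point CRC. Benzylamine substrate starts the reaction. H2O2 read kinetically over 30-120 min via Amplex Ultra Red/HRP fluorescence (ex 544/em 590 nm) to derive IC50.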
row,SMILES,pIC50
1,"COCC1CN(C(=O)C23CCC(c4ccc(OC/C(=C/F)CN)cc4)(CC2)CC3)C1 [Compound 2.55, (E)-(4-(4-((2-(aminomethyl)-3-fluoroallyl)oxy)phenyl)bicyclo [2.2.2]octan-1-yl)(3-(methoxymethyl)azetidin-1-yl)methanone]",≥ 8.00
2,"CC(C)OC1CN(C(=O)C23CCC(c4ccc(OC/C(=C/F)CN)cc4)(CC2)CC3)C1 [Compound 2.56, (E)-(4-(4-((2-(aminomethyl)-3-fluoroallyl)oxy)phenyl)bicyclo [2.2.2]octan-1-yl)(3-isopropoxyazetidin-1-yl)methanone]",≥ 8.00
3,"N#CC1CN(C(=O)C23CCC(c4ccc(OC/C(=C/F)CN)cc4)(CC2)CC3)C1 [Compound 2.57, (E)-1-(4-(4-((2-(aminomethyl)-3-fluoroallyl)oxy)phenyl)bicyclo[2.2.2]octane-1-carbonyl)azetidine-3-carbonitrile]",≥ 8.00
4,"NC/C(=C\F)COc1ccc(C23CCC(C(=O)NC45CCC(O)(CC4)CC5)(CC2)CC3)cc1 [Compound 2.58, (E)-4-(4-((2-(aminomethyl)-3-fluoroallyl)oxy)phenyl)-N-(4-hydroxybicyclo[2.2.2]octan-1-yl)bicyclo[2.2.2]octane-1-carboxamide]",≥ 8.00
5,"NC/C(=C\F)COc1ccc(C23CCC(C(=O)N(CCO)C4CC4)(CC2)CC3)cc1 [Compound 2.59, (E)-4-(4-((2-(aminomethyl)-3-fluoroallyl)oxy)phenyl)-N-cyclopropyl-N-(2-hydroxyethyl)bicyclo[2.2.2] octane-1-carboxamide]",≥ 8.00
6,"NC/C(=C\F)COc1ccc(C23CCC(C(=O)N4CC(F)(CO)C4)(CC2)CC3)cc1 [Compound 2.60, (E)-(4-(4-((2-(aminomethyl)-3-fluoroallyl)oxy)phenyl)bicyclo[2.2.2]octan-1-yl)(3-fluoro-3-(hydroxymethyl)azetidin-1-yl)methanone]",≥ 8.00
7,"NC/C(=C\F)COc1ccc(C23CCC(C(=O)NCCCO)(CC2)CC3)cc1 [Compound 2.61, (E)-4-(4-((2-(aminomethyl)-3-fluoroallyl)oxy)phenyl)-N-(3-hydroxypropyl)bicyclo[2.2.2] octane-1-carboxamide]",≥ 8.00
8,"N#CC1(CNC(=O)C23CCC(c4ccc(OC/C(=C/F)CN)cc4)(CC2)CC3)CCOCC1 [Compound 2.62, (E)-4-(4-((2-(aminomethyl)-3-fluoroallyl)oxy)phenyl)-N-((4-cyanotetrahydro-2H-pyran-4-yl)methyl)bicyclo[2.2.2]octane-1-carboxamide]",≥ 8.00
9,"NC/C(=C\F)COc1ccc(C23CCC(C(=O)NCC4(CO)CCOCC4)(CC2)CC3)cc1 [Compound 2.63, (E)-4-(4-((2-(aminomethyl)-3-fluoroallyl)oxy)phenyl)-N-((4-(hydroxymethyl)tetrahydro-2H-pyran-4-yl)methyl)bicyclo[2.2.2]octane-1-carboxamide]",≥ 8.00
10,"NC/C(=C\F)COc1ccc(C23CCC(C(=O)NC4CCCOC4)(CC2)CC3)cc1 (stereo not shown) [Compound 2.64, (E)-4-(4-((2-(aminomethyl)-3-fluoroallyl)oxy)phenyl)-N-(tetrahydro-2H-pyran-3-yl)bicyclo[2.2.2]octane-1-carboxamide]",≥ 8.00
11,"CC1(NC(=O)C23CCC(c4ccc(OC/C(=C/F)CN)cc4)(CC2)CC3)CCCOC1 (stereo not shown) [Compound 2.65, (E)-4-(4-((2-(aminomethyl)-3-fluoroallyl)oxy)phenyl)-N-(3-methyltetrahydro-2H-pyran-3-yl)bicyclo[2.2.2]octane-1-carboxamide]",≥ 8.00
12,"NC/C(=C\F)COc1ccc(C23CCC(C(=O)N4C5CCC4COC5)(CC2)CC3)cc1 [Compound 2.67, (E)-(4-(4-((2-(aminomethyl)-3-fluoroallyl)oxy)phenyl)bicyclo [2.2.2]octan-1-yl)(3-oxa-8-azabicyclo[3.2.1]octan-8-yl)methanone]",≥ 8.00
13,"NC/C(=C\F)COc1ccc(C23CCC(C(=O)NCCC(=O)N4CCOCC4)(CC2)CC3)cc1 [Compound 2.68, (E)-4-(4-((2-(aminomethyl)-3-fluoroallyl)oxy)phenyl)-N-(3-morpholino-3-oxopropyl)bicyclo[2.2.2]octane-1-carboxamide]",≥ 8.00
14,"NC/C(=C\F)COc1ccc(C23CCC(C(=O)NC4(c5ccccc5)CCOCC4)(CC2)CC3)cc1 [Compound 2.69, (E)-4-(4-((2-(aminomethyl)-3-fluoroallyl)oxy)phenyl)-N-(4-phenyltetrahydro-2H-pyran-4-yl)bicyclo[2.2.2]octane-1-carboxamide]",≥ 8.00
15,"NC/C(=C\F)COc1ccc(C23CCC(C(=O)N4CC5CCC(C4)O5)(CC2)CC3)cc1 [Compound 2.71, (E)-(4-(4-((2-(aminomethyl)-3-fluoroallyl)oxy)phenyl)bicyclo [2.2.2]octan-1-yl)(8-oxa-3-azabicyclo[3.2.1]octan-3-yl)methanone]",≥ 8.00
16,"NC/C(=C\F)COc1ccc(C23CCC(C(=O)NC4(CO)CCOCC4)(CC2)CC3)cc1 [Compound 2.72, (E)-4-(4-((2-(aminomethyl)-3-fluoroallyl)oxy)phenyl)-N-(4-(hydroxymethyl)tetrahydro-2H-pyran-4-yl)bicyclo[2.2.2]octane-1-carboxamide]",≥ 8.00
17,"NC/C(=C\F)COc1ccc(C23CCC(C(=O)NC4(CO)CC4)(CC2)CC3)cc1 [Compound 2.73, (E)-4-(4-((2-(aminomethyl)-3-fluoroallyl)oxy)phenyl)-N-(1-(hydroxymethyl)cyclopropyl) bicyclo[2.2.2]octane-1-carboxamide]",≥ 8.00
18,"NC/C(=C\F)COc1ccc(C23CCC(C(=O)NCC(F)(F)CO)(CC2)CC3)cc1 [Compound 2.74, (E)-4-(4-((2-(aminomethyl)-3-fluoroallyl)oxy)phenyl)-N-(2,2-difluoro-3-hydroxypropyl)bicyclo[2.2.2] octane-1-carboxamide]",≥ 8.00
19,"NC/C(=C\F)COc1ccc(C23CCC(C(=O)NCCN4CCOCC4)(CC2)CC3)cc1 [Compound 2.75, (E)-4-(4-((2-(aminomethyl)-3-fluoroallyl)oxy)phenyl)-N-(2-morpholinoethyl)bicyclo[2.2.2] octane-1-carboxamide]",≥ 8.00
20,"NC/C(=C\F)COc1ccc(C23CCC(C(=O)Nc4ncco4)(CC2)CC3)cc1 [Compound 2.76, (E)-4-(4-((2-(aminomethyl)-3-fluoroallyl)oxy)phenyl)-N-(oxazol-2-yl)bicyclo[2.2.2]octane-1-carboxamide]",≥ 8.00
21,"CC(C)(CO)CNC(=O)C12CCC(c3ccc(OC/C(=C/F)CN)cc3)(CC1)CC2 [Compound 2.77, (E)-4-(4-((2-(aminomethyl)-3-fluoroallyl)oxy)phenyl)-N-(3-hydroxy-2,2-dimethylpropyl)bicyclo[2.2.2] octane-1-carboxamide]",≥ 8.00
22,"NC/C(=C\F)COc1ccc(C23CCC(C(=O)N4CC[C@@H]4CO)(CC2)CC3)cc1 [Compound 2.78, (R,E)-(4-(4-((2-(aminomethyl)-3-fluoroallyl)oxy)phenyl)bicyclo [2.2.2]octan-1-yl)(2-(hydroxymethyl)azetidin-1-yl)methanone]",≥ 8.00
23,"COCCN(C)C(=O)C12CCC(c3ccc(OC/C(=C/F)CN)cc3)(CC1)CC2 [Compound 2.79, (E)-4-(4-((2-(aminomethyl)-3-fluoroallyl)oxy)phenyl)-N-(2-methoxyethyl)-N-methylbicyclo[2.2.2]octane-1-carboxamide]",≥ 8.00
24,"NC/C(=C\F)COc1ccc(C23CCC(C(=O)NCc4ccccc4)(CC2)CC3)cc1 [Compound 2.80, (E)-4-(4-((2-(aminomethyl)-3-fluoroallyl)oxy)phenyl)-N-benzylbicyclo[2.2.2]octane-1-carboxamide]",≥ 8.00
25,"Cc1n[nH]c(C)c1CNC(=O)C12CCC(c3ccc(OC/C(=C/F)CN)cc3)(CC1)CC2 [Compound 2.81, (E)-4-(4-((2-(aminomethyl)-3-fluoroallyl)oxy)phenyl)-N-((3,5-dimethyl-1H-pyrazol-4-yl)methyl)bicyclo[2.2.2]octane-1-carboxamide]",≥ 8.00
26,"NC/C(=C\F)COc1ccc(C23CCC(C(=O)N4CC5(CCOCC5)C4)(CC2)CC3)cc1 [Compound 2.82, (E)-(4-(4-((2-(Aminomethyl)-3-fluoroallyl)oxy)phenyl)bicyclo[2.2.2]octan-1-yl)(7-oxa-2-azaspiro[3.5]nonan-2-yl)methanone Hydrochloride]",≥ 8.00
27,"COCCCNC(=O)C12CCC(c3ccc(OC/C(=C/F)CN)cc3)(CC1)CC2 [Compound 2.83, (E)-4-(4-((2-(aminomethyl)-3-fluoroallyl)oxy)phenyl)-N-(3-methoxypropyl)bicyclo[2.2.2] octane-1-carboxamide]",≥ 8.00
28,"NC/C(=C\F)COc1ccc(C23CCC(C(=O)NC4CC5CCC(C4)O5)(CC2)CC3)cc1 (stereo not shown) [Compound 2.84, (E)-4-(4-((2-(aminomethyl)-3-fluoroallyl)oxy)phenyl)-N-(8-oxabicyclo[3.2.1]octan-3-yl)bicyclo[2.2.2]octane-1-carboxamide]",≥ 8.00
